Measured values as given in patent US7608630B2, “Marasmius androsaceus L.es Fr extract, piperidone derivative, and their use for the preparation of hypertensives” (Hainan Yangpu New Special Pharmaceutical Co., Ltd., priority 2004, dated 2009).
Several values for one entry are separate records, joined by “and”; a condition that tells them apart may be missing. Equal values may be shown once.

Experiments:
[1] = tested on: blood pressure of SHR rat; test: Reduction of blood pressure of anesthetized SHR rat; assay type: in vivo, spontaneously hypertensive rat (SHR); details: SHR rat; for Diastolic pressure / Systolic pressure: 10 mg/kg intravenous; for reduction of systolic pressure and diastolic pressure: dosage range 10-200 mg/kg, intravenous
Protocol: (§1) A spontaneously hypertensive rat (SHR) was anesthetized with 40 mg/ml pentobarbital, and fixed by its back on an experimental stand. The skin at its neck was cut open after removing hair, and thereafter the right common carotid artery was separated with its proximal end being clamped by a artery clamp and its axifugal end being ligated by a thread. A V-shape cut was made with scissors at the axifugal end, into which an arterial cannula filled with heparin physiological saline was inserted. The arterial cannula was connected with a blood pressure transducer, and then the blood pressure transducer was connected to a computer-controlled three-way physiological-pharmacological recorder. The right femoral vein of the rat was separated and intubated for the injection of a drug. When the blood pressure became stable (i.e., the blood pressure contraction curve became straight), the rat was administered by intravenous route.

[2] = tested on: aorta smooth muscle of rabbit; test: Effects on aorta of rabbit (contraction of isolated aorta section caused by adrenalin); set-up: species or system New Zealand rabbit
Protocol: A New Zealand rabbit was beheaded and unconscious. After thoracotomy, its thoracic aorta was quickly taken out, and quickly placed in and flushed with a pre-cooled LOCK's solution (which comprised of 1000 ml water, 9 g NaCl, 0.35 g KCl, 0.35 g MgSO4.7H2O, 0.16 g KH2PO4, and 1 g NaHCO3) to remove bloodiness. The connective tissue outside the blood vessel was carefully cut off, and an aorta section of 2-3 mm wide at an angle of 45° relative to the vessel was taken for use in the following test.
The aorta section of 2 cm long was clamped at its both ends with frog heart clips, and put in a thermostatic perfusion tank of 38° C. with the lower end being fixed at the bottom of the tank and the top end being connected by a thread to a tensile transducer of a two-way electrophysiolograph. Oxygen was bubbled to the solution in the perfusion tank, and the contraction force of the aorta section was recorded after balancing it in the solution for 80 min. During which, the LOCK's solution was changed once per 20 min. After adding 1.2×10^−6 mg/ml adrenalin to the solution, the contraction curve of the aorta section was recorded.

blood pressure of cats = test: Reduction of blood pressure of cat; assay type: in vivo; details: cats, 10 mg/kg o.s; for Diastolic pressure, Animal 1-4 individually / Systolic pressure, Animal 1-4 individually / Systolic pressure, Animal 3-4 individually: 10 mg/kg
Protocol: as §1
Five cats of 2.5-3.2 kg were administered orally and intravenously respectively according to the method in Example 8, and then their systolic pressure and diastolic pressure were determined using normal cats non-administered as a control group.

[3] = tested on: ileum smooth muscle of guinea pig; test: Effects on ileum smooth muscle of guinea pig (automatic rhythmic contraction of isolated ileum section)
Protocol: The section was clamped at its both ends with frog heart clips, and placed in a perfusion tank with the lower end being fixed at the bottom of the tank and the top end being connected by a thread to a tensile transducer of a two-way electrophysiolograph, so that the automatic rhythmic contraction of the ileum section was recorded. The Tai's nutrient solution in the tank was kept at a temperature of 35° C., into which pure […] was bubbled. […] The normal contraction curve of the ileum section was firstly recorded using isoprenaline as a positive control.

[4] = 10 min after administration (Table 9)
[5] = 20 min after administration (Table 9)
[6] = 30 min after administration (Table 9)
[7] = 40 min after administration (Table 9)
[8] = 50 min after administration (Table 9)
[9] = 60 min after administration (Table 9)
[10] = 90 min after administration (Table 9)
[11] = 120 min after administration (Table 9)
[12] = 150 min after administration (Table 9)
[13] = 180 min after administration (Table 9)
[14] = before administration (Table 9)

CC1(C)CNCC(C)(C)C1=O.Cl [3,3,5,5-tetramethyl-4-piperidone hydrochloride]
Diastolic pressure ([1]; 5 min after administration): 109 ± 13 mm/Hg
Systolic pressure ([1]; 5 min after administration): 139 ± 19 mm/Hg
Diastolic pressure ([1]; 60 min after administration): 89 ± 12 mm/Hg
Systolic pressure ([1]; 60 min after administration): 123 ± 11 mm/Hg
Diastolic pressure ([1]; 120 min after administration): 80 ± 23 mm/Hg
Systolic pressure ([1]; 120 min after administration): 129 ± 17 mm/Hg
Diastolic pressure ([1]; 240 min after administration): 112 ± 16 mm/Hg
Systolic pressure ([1]; 240 min after administration): 169 ± 14 mm/Hg
Diastolic pressure ([1]; before administration): 119 ± 15 mm/Hg
Systolic pressure ([1]; before administration): 170 ± 9.3 mm/Hg
reduction of systolic pressure and diastolic pressure [1]: could obviously reduce the systolic pressure and diastolic pressure of SHR rat

CCN1CC(C)(C)C(=O)C(C)(C)C1 [Compound of formula Ia, 1-ethyl-3,3,5,5-tetramethyl-4-piperidone]
Time of taking effect ([2]; concentration 1 × 10^−4 mg/ml): 3 min
Contraction force ([2]; concentration 1 × 10^−4 mg/ml, 10 min, then adrenalin 1.2×10^−6 mg/ml, relative to original value): 0.3
reduction of the contraction of aorta section caused by adrenalin ([2]; concentration range 5×10^−3-1×10^−4 mg/ml): could obviously reduce the contraction of aorta section caused by adrenalin
contraction force resumed by adrenalin, fraction of the original value ([2]; sample 10 min, then adrenalin 1.2×10^−6 mg/ml, stated for the three samples together): ½-⅓

CC1(C)CNCC(C)(C)C1O [Compound of formula Ib, 3,3,5,5-tetramethyl-4-piperidanol]
Average Diastolic pressure (blood pressure of cats; [4]): 106.75 mmHg
Average Systolic pressure (blood pressure of cats; [4]): 141.75 mmHg
Diastolic pressure, Animal 1-4 individually (blood pressure of cats; [4]): 119 mmHg and 105 mmHg and 100 mmHg and 103 mmHg
Systolic pressure, Animal 1-4 individually (blood pressure of cats; [4]): 136 mmHg and 139 mmHg and 145 mmHg and 147 mmHg
Average Diastolic pressure (blood pressure of cats; [5]): 104.25 mmHg
Average Systolic pressure (blood pressure of cats; [5]): 140 mmHg
Diastolic pressure, Animal 1-4 individually (blood pressure of cats; [5]): 135 mmHg and 89 mmHg (2×) and 104 mmHg
Systolic pressure, Animal 1-4 individually (blood pressure of cats; [5]): 146 mmHg and 125 mmHg and 153 mmHg and 136 mmHg
Average Diastolic pressure (blood pressure of cats; [6]): 104.75 mmHg
Average Systolic pressure (blood pressure of cats; [6]): 140.5 mmHg
Diastolic pressure, Animal 1-4 individually (blood pressure of cats; [6]): 130 mmHg and 90 mmHg (2×) and 109 mmHg
Systolic pressure, Animal 1-4 individually (blood pressure of cats; [6]): 146 mmHg and 126 mmHg and 154 mmHg and 136 mmHg
Average Diastolic pressure (blood pressure of cats; [7]): 102.25 mmHg
Average Systolic pressure (blood pressure of cats; [7]): 139 mmHg
Diastolic pressure, Animal 1-4 individually (blood pressure of cats; [7]): 126 mmHg and 91 mmHg and 102 mmHg and 90 mmHg
Systolic pressure, Animal 1-4 individually (blood pressure of cats; [7]): 140 mmHg and 126 mmHg and 154 mmHg and 136 mmHg
Average Diastolic pressure (blood pressure of cats; [8]): 103 mmHg
Average Systolic pressure (blood pressure of cats; [8]): 136.5 mmHg
Diastolic pressure, Animal 1-4 individually (blood pressure of cats; [8]): 126 mmHg and 96 mmHg and 103 mmHg and 87 mmHg
Systolic pressure, Animal 1-4 individually (blood pressure of cats; [8]): 136 mmHg and 130 mmHg (2×) and 150 mmHg
Average Diastolic pressure (blood pressure of cats; [9]): 109 mmHg
Average Systolic pressure (blood pressure of cats; [9]): 138 mmHg
Diastolic pressure, Animal 1-4 individually (blood pressure of cats; [9]): 123 mmHg and 97 mmHg and 102 mmHg and 114 mmHg
Systolic pressure, Animal 1-4 individually (blood pressure of cats; [9]): 140 mmHg and 122 mmHg and 152 mmHg and 138 mmHg
Average Diastolic pressure (blood pressure of cats; [10]): 109.25 mmHg
Average Systolic pressure (blood pressure of cats; [10]): 141.75 mmHg
Diastolic pressure, Animal 1-4 individually (blood pressure of cats; [10]): 125 mmHg and 95 mmHg and 110 mmHg and 107 mmHg
Systolic pressure, Animal 1-4 individually (blood pressure of cats; [10]): 135 mmHg and 130 mmHg and 156 mmHg and 146 mmHg
Average Diastolic pressure (blood pressure of cats; [11]): 116.75 mmHg
Average Systolic pressure (blood pressure of cats; [11]): 151.5 mmHg
Diastolic pressure, Animal 1-4 individually (blood pressure of cats; [11]): 131 mmHg and 94 mmHg and 115 mmHg and 127 mmHg
Systolic pressure, Animal 1-4 individually (blood pressure of cats; [11]): 146 mmHg and 131 mmHg and 165 mmHg and 164 mmHg
Average Diastolic pressure (blood pressure of cats; [12]): 116.75 mmHg
Average Systolic pressure (blood pressure of cats; [12]): 155.25 mmHg
Diastolic pressure, Animal 1-4 individually (blood pressure of cats; [12]): 132 mmHg and 98 mmHg and 117 mmHg and 120 mmHg
Systolic pressure, Animal 1-4 individually (blood pressure of cats; [12]): 145 mmHg and 139 mmHg and 166 mmHg and 171 mmHg
Average Diastolic pressure (blood pressure of cats; [13]): 118.5 mmHg
Average Systolic pressure (blood pressure of cats; [13]): 158.5 mmHg
Diastolic pressure, Animal 1-4 individually (blood pressure of cats; [13]): 133 mmHg and 97 mmHg and 113 mmHg and 131 mmHg
Systolic pressure, Animal 1-4 individually (blood pressure of cats; [13]): 152 mmHg and 142 mmHg and 160 mmHg and 180 mmHg
Systolic pressure, Animal 3-4 individually (blood pressure of cats; 210 min after administration (Table 9)): 156 mmHg and 186 mmHg
Average Systolic pressure (blood pressure of cats; 210 min after administration (Table 9; two animals)): 171 mmHg
Systolic pressure, Animal 3-4 individually (blood pressure of cats; 240 min after administration (Table 9)): 155 mmHg and 202 mmHg
Average Systolic pressure (blood pressure of cats; 240 min after administration (Table 9; two animals)): 178.5 mmHg
Average Diastolic pressure (blood pressure of cats; [14]): 140 mmHg
Average Systolic pressure (blood pressure of cats; [14]): 195.25 mmHg
Diastolic pressure, Animal 1-4 individually (blood pressure of cats; [14]): 134 mmHg and 156 mmHg and 116 mmHg and 154 mmHg
Systolic pressure, Animal 1-4 individually (blood pressure of cats; [14]): 150 mmHg and 209 mmHg and 185 mmHg and 237 mmHg
Relaxation Time ([3]; concentration 1 × 10^−4 mg/ml): 5 h
Time of taking effect ([3]; concentration 1 × 10^−4 mg/ml): 3 min
inhibition of the automatic rhythmic contraction of the ileum section ([3]; different concentrations): could inhibit the automatic rhythmic contraction of the ileum section
Systolic pressure ([1]; 5 min after administration): 140 ± 19 mm/Hg
Diastolic pressure ([1]; 60 min after administration): 88 ± 10 mm/Hg
Systolic pressure ([1]; 60 min after administration): 121 ± 15 mm/Hg
Diastolic pressure ([1]; 120 min after administration): 89 ± 8.9 mm/Hg
Systolic pressure ([1]; 120 min after administration): 126 ± 16 mm/Hg
Diastolic pressure ([1]; 240 min after administration): 107 ± 9.2 mm/Hg
Systolic pressure ([1]; 240 min after administration): 162 ± 11 mm/Hg
Diastolic pressure ([1]; before administration): 125 ± 17 mm/Hg
Systolic pressure ([1]; before administration): 178 ± 13 mm/Hg
reduction of systolic pressure and diastolic pressure [1]: could obviously reduce the systolic pressure and diastolic pressure of SHR rat

CC(C)NCC(O)c1ccc(O)c(O)c1 (stereo not drawn) [Isoprenaline, reference compound]
Relaxation Time ([3]; concentration 5 × 10^−5 mg/ml): 0.3 h
Time of taking effect ([3]; concentration 5 × 10^−5 mg/ml): 16 min
time after flushing at which the inhibited contraction is resumed ([3]; concentration 5×10^−5 mg/ml, control): 20 min
Time of taking effect ([2]; concentration 1.2 × 10^−6 mg/ml): 16 min
Contraction force ([2]; concentration 1.2 × 10^−6 mg/ml, relative to original adrenalin contraction): 1
